Here are results for nine compounds from patent publication US5658908A (priority 1992, dated 1997).

In data set [1] the test system is mu receptor. Briefly: Mu opioid receptor agonist activity. To be noted: in words.
Data set [2] addresses delta receptor (Mus musculus, UniProt P32300). Briefly: Delta opioid receptor agonist activity. To be noted: in words.
The nature of data set [3]: Analgesia (test not described). The class given is in vivo. The note with it: in words.
For a further data set, the system named is guinea pig ileum. Nature of the data set: Inhibition of electrically stimulated contraction of guinea pig ileum. It is filed as cell-based. The note with it: Cavia porcellus, mean of (n) experiments, read-out: Guinea Pig lleum ED50.
Data set [4] has as its target T1, Mu Receptor (Rattus norvegicus, UniProt P33535).
T1 construct: Rat (Sprague-Dawley) brain membranes were prepared; from tissue; host or cells: rat (Sprague-Dawley) brain membranes
Nature of the data set: Mu receptor binding, rat brain membranes. Also noted: species or system rat (Sprague-Dawley). To be noted: 125I-[D-Ala2,N-MePhe4,Met(O)ol5]enkephalin 0.1 nM, 24° C., 60 min, mean of (n) experiments, read-out: Mu Receptor IC50.

In data set [5] the target is T2, mouse vas deferens (Mus musculus, UniProt P32300).
T2 construct: Vasa deferentia were removed from mice; from tissue; host or cells: mouse vas deferens
T2 sequence (P32300 whole entry): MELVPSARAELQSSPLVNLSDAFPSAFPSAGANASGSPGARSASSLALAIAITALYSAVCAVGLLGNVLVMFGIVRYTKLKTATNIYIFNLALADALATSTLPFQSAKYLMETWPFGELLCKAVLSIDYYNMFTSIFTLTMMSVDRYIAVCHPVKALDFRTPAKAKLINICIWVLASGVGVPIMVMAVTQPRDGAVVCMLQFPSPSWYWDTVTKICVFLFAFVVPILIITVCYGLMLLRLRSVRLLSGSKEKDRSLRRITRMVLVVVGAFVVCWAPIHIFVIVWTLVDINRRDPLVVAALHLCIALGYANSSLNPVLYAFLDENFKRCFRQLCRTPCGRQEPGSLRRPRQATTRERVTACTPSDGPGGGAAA
Nature of the data set: cell-based.

A short description of data set [6]: Side effects on peripheral administration to rats and mice.
Data set [7] deals with T2, mouse vas deferens. Nature of the data set: cell-based. The class given is cell-based.
The target of data set [8] is T3, Delta Receptor (Rattus norvegicus, UniProt P33533).
T3 construct: Rat (Sprague-Dawley) brain membranes were prepared; from tissue; host or cells: rat (Sprague-Dawley) brain membranes
T3 sequence (P33533 whole entry): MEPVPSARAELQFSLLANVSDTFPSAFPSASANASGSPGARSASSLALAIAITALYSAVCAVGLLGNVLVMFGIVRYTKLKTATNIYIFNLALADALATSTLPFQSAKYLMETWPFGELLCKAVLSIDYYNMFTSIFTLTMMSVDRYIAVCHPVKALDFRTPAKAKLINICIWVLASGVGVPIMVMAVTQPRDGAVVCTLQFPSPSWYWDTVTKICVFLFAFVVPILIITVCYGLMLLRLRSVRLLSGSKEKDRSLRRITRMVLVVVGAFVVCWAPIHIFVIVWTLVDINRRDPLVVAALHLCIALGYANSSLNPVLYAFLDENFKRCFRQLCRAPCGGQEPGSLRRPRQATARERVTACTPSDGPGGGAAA
Nature of the data set: Delta receptor binding, rat brain membranes. Also noted: species or system rat (Sprague-Dawley). To be noted: 125I-[D-Ala2,D-Leu5]enkephalin 0.24 nM with mu-agonist morphiceptin analog, 24° C., 60 min, mean of (n) experiments, read-out: Delta Receptor IC50.

For data set [9], the system named is mu and delta opioid receptors. Nature of the data set: Rodent tests of analgesia, muscle rigidity, respiratory depression and proconvulsant activity.
The next data set has as its system delta-opioid receptor. Nature of the data set: Tail flick test, injection into brain (icv). The class given is in vivo. To be noted: mice.

“Also recorded” adds a separate entry of the source.

Chain of delta receptor (P32300 whole entry): as the sequence (P32300 whole entry) above
T1 sequence (P33535 whole entry): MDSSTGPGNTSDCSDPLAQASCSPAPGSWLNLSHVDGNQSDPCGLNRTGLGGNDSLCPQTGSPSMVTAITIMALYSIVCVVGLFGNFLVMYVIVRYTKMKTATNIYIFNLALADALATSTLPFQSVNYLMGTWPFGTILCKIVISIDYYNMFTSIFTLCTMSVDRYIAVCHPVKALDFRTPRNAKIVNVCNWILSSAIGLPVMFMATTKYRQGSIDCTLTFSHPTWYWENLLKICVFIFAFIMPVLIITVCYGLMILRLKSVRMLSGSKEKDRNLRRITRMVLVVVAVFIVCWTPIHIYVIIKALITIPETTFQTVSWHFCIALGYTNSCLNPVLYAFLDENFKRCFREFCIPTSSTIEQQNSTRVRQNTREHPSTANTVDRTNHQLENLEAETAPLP

Turning to `C=CCN1C[C@H](C)N([C@@H](c2ccccc2)c2cccc(O)c2)C[C@H]1C` (relative stereo) [Compound I], the “mu receptor agonist activity” value with mu receptor [1] is listed as “significant agonist activity”. The “delta receptor agonist activity” value on delta receptor [2] is reported as “delta-receptor opiate properties”. The analgesic activity entry in data set [3] was “strong analgesics”.
Consider `CCN(CC)C(=O)c1ccc([C@H](c2cccc(O)c2)N2C[C@@H](C)N(C)C[C@H]2C)cc1` [Example 13, (+)-N,N-diethyl-4-(3-hydroxy-(αR)-α-((2R,5R) -2,4,5-trimethyl-1-piperazinyl)benzyl)benzamide], for which the IC50 is greater than 10000 nM in the data set on guinea pig ileum and 2400 nM at Mu Receptor [4]. At mouse vas deferens [5], this compound gave a Kb of 100 nM.
For `C=CCN1C[C@H](C)N([C@@H](c2ccsc2)c2cccc(O)c2)C[C@H]1C` (relative stereo) [Compound K], the “mu receptor agonist activity” value in the data set on mu receptor [1] is listed as “significant agonist activity”. Further, the “delta receptor agonist activity” value on delta receptor [2] was “delta-receptor opiate properties”. The analgesic activity entry in data set [3] is given as “strong analgesics”.
Regarding `C=CCN1C[C@H](C)N([C@H](c2cccc(O)c2)c2cc(Br)c(C(=O)N(CC)CC)s2)C[C@H]1C` (relative stereo) [Compound B, 5-((αR*)-α-((2S*,5R*)-4-allyl-2,5-dimethyl-1-piperazinyl)-3-hydroxybenzyl)-3-bromo-N,N-diethyl-2-thiophenecarboxamide], the “delta receptor agonist activity” value on delta receptor [2] is “predominantly delta receptor agonist; also recorded: delta-opioid agonist”. Besides, the “opioid receptor ligand selectivity” value in the data set on opioid receptor is “highly selective opioid receptor ligand species”. For the same compound, the “side effects when administered peripherally” value in data set [6] is “does not produce evident side effects”.
As for `C=CCN1C[C@H](C)N([C@H](c2ccc(C(=O)NCC(=O)NCC(=O)O)cc2)c2cccc(O)c2)C[C@H]1C` (relative stereo) [Compound H], the “delta receptor agonist activity” value on delta receptor [2] is “delta receptor agonist activity”.
In the case of `C=CCN1C[C@H](C)N([C@@H](c2cccc(O)c2)c2cccc(C(=O)N(CC)CC)c2)C[C@H]1C` [Example 85, (+)-3-((αR)-α-((2S,5R)-4-Allyl-2,5-dimethyl-1-piperazinyl)-3-hydroxybenzyl)-N,N-diethylbenzamide], the results for the IC50 on mouse vas deferens [7], in the data set on guinea pig ileum and on Delta Receptor [8] were 7.3 nM, 18 nM and 1.9 nM, respectively. The “mu receptor agonist activity” value in the data set on mu receptor [1] (listed as Compound C) was “mixed mu/delta opioid agonist; also recorded: agonism at both mu and delta opioid receptors”. In addition, the “delta receptor agonist activity” value on delta receptor [2] (listed as Compound C) is “mixed mu/delta opioid agonist; also recorded: agonism at both mu and delta opioid receptors”. The “analgesic potency compared to morphine” value in data set [9] is “analgesic potency comparable to mu-analgesic morphine”. In data set [9], the “muscle rigidity and respiratory depression compared to morphine” value is “much reduced extent of muscle rigidity and respiratory depression”. Moreover, the proconvulsant activity result in [9] is “free of proconvulsant activity”.
Turning to `CCN(CC)C(=O)c1ccc(C(c2cccc(O)c2)N2C[C@@H](C)N(C)[C@@H](C)C2)cc1` (relative stereo) [Compound E], at mouse vas deferens [7] (in words), the “agonist activity in the mouse vas deferens” value is “inactive as an agonist” and the “antagonist activity in the mouse vas deferens” value is recorded as “may be a weak antagonist”. In the data set on delta-opioid receptor, the “analgesic activity in the tail flick test” value is “provide analgesic activity” and the “reversal of analgesia by injection of naloxone or delta-specific antagonists (ICI 174,864 or naltrindole)” value is reported as “reversible”.
With `C=CCN1C[C@H](C)N([C@H](c2ccc(C(=O)N(CC)CCO)cc2)c2cccc(O)c2)C[C@H]1C` (relative stereo) [Compound J], the “delta receptor agonist activity” value at delta receptor [2] is given as “potent delta receptor agonist activity”.
As for `C=C(C)CN1C[C@H](C)N(C(c2ccc(S(=O)(=O)N(CC)CC)cc2)c2cccc(O)c2)C[C@H]1C` (some centres unmarked) [Compound D], the “agonist activity in the mouse vas deferens” value on mouse vas deferens [7] (in words) is on record as “potent agonist”. In the data set on delta-opioid receptor, the “analgesic activity in the tail flick test” value is on record as “provide analgesic activity” and the “reversal of analgesia by injection of naloxone or delta-specific antagonists (ICI 174,864 or naltrindole)” value is “reversible”.
